The text below walks through data of patent EP4574175A1, “PRODRUG FOR ANTI-AGING RELATED DISEASES AND USE METHOD THEREFOR” (BEIJING SUNCELL BIO-MEDICAL CO., LTD., priority 2022, dated 2024).

The nature of series [1]: Hepatic microsomal metabolic stability. As to conditions: mouse. Here is the method: […] Samples were taken and analyzed at time points 0, 15, 30, 45 and 60 minutes during the incubation. The reaction was terminated by adding an amount of acetonitrile solution containing the internal standard. […] The residual percentage, half-life, intrinsic clearance, amplified clearance, hepatic clearance and hepatic extraction ratio were determined. The entire experiment was performed in triplicate. All data calculations were performed by Microsoft Excel software. Peak areas were detected by extracting the ionic spectrum. The in vitro half-life (t1/2) of the parent compound was detected by fitting the natural logarithm of the percentage elimination of the parent compound linearly to time.
The in vitro intrinsic clearance (in µL/min/mg protein) was calculated using the following equation: in vitro CLint = kV/N
The amplified clearance (in mL/min/kg) was calculated using the following equation: Amplified CLint = kV/N × the amplification factor [formula]
The hepatic clearance (in mL/min/kg) was calculated using the following equation: The predicted hepatic CLH = (Q×Fu/RB×theamplifiedCLint)/([…]) [formula] • V = the incubation volume per well (0.2 mL); • N = the total amount of protein (mg) • Q = the hepatic blood flow (mL/min/kg) • Fu = the plasma free rate (assumed to be 1) • RB = the whole blood partition coefficient (assumed to be 1)
The hepatic […] was calculated using the following equation: The hepatic extraction ratio(ER) = (thepredictedhepaticCLH)/Q [formula]

Series [2] is described as follows: Hepatic microsomal metabolic stability.
In series [3] the test system is mouse model of oxygen-induced retinopathy. The series can be described thus: Oxygen-induced retinopathy mouse model. Type of series: in vivo, C57BL6/J mice. As to conditions: single intravitreal injection on postnatal day 12, 50 ng and 100 ng, vs vehicle, IB4 staining at P17. The text has this: Neonatal C57BL6/J mice were exposed to a 75% hyperoxia chamber (Shanghai Tow-Int Tech Co., Ltd., Ox-100HE) from the 7th to the 12th day after birth, together with the surrogate ICR female mice, and the mice were removed and placed in a normal air environment for feeding after 12 days. Hypoxia-induced abnormal vasoproliferative lesions persisted in the retina of the neonatal mice after they were fed under a hyperoxic condition and then transferred to a normoxic condition. This mouse lesion model mimics the retinal lesion characteristic of some human vision-related diseases, such as proliferative diabetic retinopathy.
Mice on postnatal day 12 were treated with the intravitreal administration of A13bGa1 or vehicle control in each eye of each mouse. […]
The extracted eyeballs of mice were firstly fixed with 4% paraformaldehyde for 1 hour at room temperature. The retina was carefully detached using the micro ophthalmic scissors and the micro forceps, and then placed in the pre-prepared fluorescence-labelled […] IB4 (Vector, FL-1201) staining solution, and stained overnight at 4 degrees Celsius away from light. Retinal sections were made after the completion of staining, and photographed using a confocal fluorescence microscope (Leica, TCS-SP8). Retinal microvascular stained sections were analyzed for the ischaemic areas and the abnormal neovascular areas using ImageJ (NIH, USA).

For series [4], the target named is T1, E. coli-derived β-galactosidase (Escherichia coli, UniProt P00722).
T1 construct: purchased Sigma
The series can be described thus: In vitro enzymatic hydrolysis reaction monitored by HPLC. Type of series: biochemical. As to conditions: 10 µM, PBS pH 7.3, 37°C, 6 hours. On the procedure:
The in vitro enzymatic hydrolysis reaction was carried out using E. coli-derived β-galactosidase (Sigma) in PBS solution (0.01 M, pH 7.3) at a reaction concentration of 10 µM for both A13 and A13bG, and for 6 hours at 37°C after the addition of β-galactosidase (10 U/µM). The hydrolysis reaction was monitored by the high performance liquid chromatography (HPLC). The compound A13 and the prodrug A13bG without enzyme reaction were analyzed by HPLC at the same conditions as the references. The chromatographic column model: Waters Acquity BEH C4, the conditions: 0.04 ml/min, (water (0.1% acetic acid)): the acetonitrile gradient elution: 98:2 1 min, 5:95 13 min, 5:95 18 min, 2:98 20 min.

A short description of series [5]: Plasma metabolic stability. Type of series: in vitro ADME, human. As to conditions: Huamn plasma, 10 µM, 120 minutes. On the procedure:
(§1) Termination of the reaction was accomplished by the addition of 3x volume of acetonitrile and centrifugation at 16000 g for 20 minutes. The supernatant was taken for a LC-MS/MS analysis. The chromatographic column: Waters XSelect HSS T3; the flow rate: 500 µL/min; the eluent: A, water (0.1% formic acid); B, acetonitrile (0.1% formic acid); the gradient elution: 0-1.5 min, 5% B, 1.5-9 min, 5%-80% B, 9-12 min, 80%-100% B, 12-14 min, 100% B, 14-14.3 min, 100%-5% B, 14.3-15 min, 5% B.

Series [6] is described as follows: Hepatic microsomal metabolic stability. This is another data set of the same source.
Series [7] is described as follows: Plasma metabolic stability. As to conditions: 10 µM, 120 minutes; for The peak area after normalisation at minute 120, peak 1 oxidative dehydrogenation: metabolite peak. The series is classed as in vitro ADME. Here is the method: as §1

T1 sequence (P00722 2-1024): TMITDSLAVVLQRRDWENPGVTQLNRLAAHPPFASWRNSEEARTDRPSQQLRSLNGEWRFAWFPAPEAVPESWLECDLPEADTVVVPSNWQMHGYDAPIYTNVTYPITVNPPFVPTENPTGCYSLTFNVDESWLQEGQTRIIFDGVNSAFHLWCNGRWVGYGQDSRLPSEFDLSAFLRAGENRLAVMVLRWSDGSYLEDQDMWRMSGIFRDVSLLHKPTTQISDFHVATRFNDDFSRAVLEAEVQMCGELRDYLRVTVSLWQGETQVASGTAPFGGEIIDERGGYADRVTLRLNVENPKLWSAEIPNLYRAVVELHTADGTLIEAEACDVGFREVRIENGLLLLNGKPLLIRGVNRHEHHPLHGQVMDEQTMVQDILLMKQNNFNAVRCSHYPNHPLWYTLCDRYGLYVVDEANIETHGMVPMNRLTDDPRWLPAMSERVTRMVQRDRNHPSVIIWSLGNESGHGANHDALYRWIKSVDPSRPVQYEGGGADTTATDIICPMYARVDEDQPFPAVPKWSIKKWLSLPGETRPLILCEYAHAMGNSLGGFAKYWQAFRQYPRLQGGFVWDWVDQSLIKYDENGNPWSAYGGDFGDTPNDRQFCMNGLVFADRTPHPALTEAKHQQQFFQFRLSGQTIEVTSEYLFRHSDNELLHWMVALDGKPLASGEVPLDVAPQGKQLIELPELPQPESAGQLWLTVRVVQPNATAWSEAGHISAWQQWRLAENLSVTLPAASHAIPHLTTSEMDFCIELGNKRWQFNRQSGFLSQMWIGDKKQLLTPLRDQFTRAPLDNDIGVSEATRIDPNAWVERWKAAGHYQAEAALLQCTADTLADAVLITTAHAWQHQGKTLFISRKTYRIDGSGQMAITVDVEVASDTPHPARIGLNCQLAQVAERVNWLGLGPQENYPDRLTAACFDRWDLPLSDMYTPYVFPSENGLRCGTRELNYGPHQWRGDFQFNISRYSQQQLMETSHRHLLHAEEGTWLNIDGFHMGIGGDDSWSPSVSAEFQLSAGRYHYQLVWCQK

With `Cc1c(-c2ccc(N3CCc4cccc(C(=O)Nc5nc6ccccc6s5)c4C3)nc2C(=O)OCc2ccc(O[C@@H]3O[C@H](CO)[C@H](O)[C@H](O)[C@H]3O)c([N+](=O)[O-])c2)cnn1CC12CC3CC(CC(C3)C1)C2` [A13bGa1], the entries for the “The hepatic extraction ratio (E)” value in series [1], in series [2] (human) and in series [6] (Monkey) were 0.40, 0.86 and 0.69, respectively. In addition, the CLint scaled at 1 µM in series [1] (microsomes) is 36.2 mL/min/kg; in series [6] (monkey, microsomes, The amplified intrinsic clearance Cl int), 9800 mL/min/kg; in series [6] (monkey, microsomes, The predicted intrinsic hepatic clearance Cl int) it was 30.2 mL/min/kg. In addition, the intrinsic metabolic clearance (microsomal CLint) at 1 µM in series [1] (microsomes) was 13.8 µL/min/mg; in series [6] (monkey, microsomes), 65.3 µL/min/mg. Further, the CLint scaled in series [2] was 17.9 mL/min/kg. Further, the “area of the abnormal neovascular area” value in series [3] is “significantly reduced”. In addition, in series [3], the “area of the ischemic lesion area of the retina center” value is given as “significantly reduced”. Moreover, the “hydrolysis by β-gal enzyme” value in series [4] is “hydrolysed under the action of β-gal enzyme to release the parent compound A13”. Moreover, the “The peak area after normalisation at minute 120, Initial drug A13bGa1” value in series [5] amounted to 99.93%; in series [7] (Canine plasma) it was 99.52%; in series [7] (Monkey plasma) it was 99.96%; in series [7] (Mouse plasma) it was 99.96%; in series [7] (Rat plasma), 99.87%. Besides, the “The peak area after normalisation at minute 120, peak 1 oxidative dehydrogenation” value in series [5] (metabolite peak) amounted to 0.07%; in series [7] (Canine plasma), 0.48%; in series [7] (Monkey plasma) it was 0.04%; in series [7] (Mouse plasma), 0.04%; in series [7] (Rat plasma) it was 0.13%.
